Among the data in BindingDB's records for doi:10.3109/14756369809021481 (Laboratoire De Chimie Bioorganique, 1998) are IC50 and Ki values, retold here.

For orientation: IC50 means the concentration that inhibits the measured activity by half. Low values mean inhibition by little substance, high ones a need for much substance. A word on the Ki: it is a measure of affinity in units of concentration, obtained from inhibition or displacement.

Each structure is given as a SMILES string.

Chain of S-adenosylmethionine synthase isoform type-2 (P18298 whole entry, canonical isoform): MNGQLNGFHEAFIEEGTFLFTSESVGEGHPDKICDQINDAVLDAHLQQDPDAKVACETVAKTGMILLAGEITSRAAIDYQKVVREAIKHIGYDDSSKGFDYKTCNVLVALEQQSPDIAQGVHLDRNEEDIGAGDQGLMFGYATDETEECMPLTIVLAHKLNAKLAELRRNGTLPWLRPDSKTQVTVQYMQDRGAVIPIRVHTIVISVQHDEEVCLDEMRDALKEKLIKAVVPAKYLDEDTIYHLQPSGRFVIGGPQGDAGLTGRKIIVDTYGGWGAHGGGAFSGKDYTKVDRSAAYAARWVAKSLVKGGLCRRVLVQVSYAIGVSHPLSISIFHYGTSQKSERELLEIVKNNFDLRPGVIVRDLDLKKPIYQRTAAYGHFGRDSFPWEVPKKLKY

The target of this assay is S-adenosylmethionine synthase isoform type-2 (Rattus norvegicus, UniProt P18298). The assay can be described thus: Inhibition Assay. The following applies: pH 7.5; 37 °C. On the procedure:
AdoMet synthetase activity was measured by a radioactive assay using (14C-methyl)-L-methionine as described by Sullivan and Hoffman with minor modification to give better efficiency in the separation of labelled residual methionine and AdoMet formed.
`N[C@@H](C[C@@H]1CS1)C(=O)O` [Epithioamino acid analogue, II(a)]: the IC50 was 140 µM and the affinity corresponds to a Ki of 100 µM.

`C[C@H]1S[C@@H]1C[C@H](N)C(=O)O` [Epithioamino acid analogue, II(b)]: the IC50 turned out to be 300 µM and the Ki is 140 µM.

`C[C@@H]1S[C@@H]1C[C@H](N)C(=O)O` [Epithioamino acid analogue, II(c)] returned an IC50 of 400 µM and a Ki of 140 µM.

`N[C@@H](C[C@H]1CO1)C(=O)O` [Epoxy analogue, I(a)] yielded an IC50 of 50 µM and a Ki of 7 µM.

Compound `C[C@H]1O[C@H]1C[C@H](N)C(=O)O` [Epoxy analogue, I(b)] returned an IC50 of 100 µM and a Ki of 61 µM.

As to `C[C@@H]1O[C@H]1C[C@H](N)C(=O)O` [Epoxy analogue, I(c)], half-maximal inhibition (IC50) was put at 110 µM and the Ki amounted to 105 µM.
